Reference: ChEMBL document CHEMBL3882242, “Synthesis and biological evaluation of analogs of the antimitotic marine natural product curacin A” (2002)
The source made the active and inactive calls. The rule behind the calls is not given here.

Columns and labels:
Tubulin (Bos taurus) [1] = target: T1, Tubulin (Bos taurus) (UniProt Q6B856+Q862L2+Q862F3); assay: Inhibition of GTP/glutamate-induced bovine brain tubulin polymerization at 5 uM by […]
Tubulin (Bos taurus) [2] = target: T1, Tubulin (Bos taurus); assay: Inhibition of [3H]colchicin binding to bovine brain tubulin incubated at 50 uM and 30 degreeC for 10 mins in presence of GTP by scintillation spectroscopic method
[3] = Growth inhibition of human MDA-MB-231 cells incubated for 48 hrs by MTS assay; assay type: functional; conditions: MDA-MB-231, 48 h
[4] = Growth inhibition of human PC3 cells incubated for 96 hrs by MTS assay; assay type: functional; conditions: PC-3, 96 h
[5] = Growth inhibition of human PC3 cells incubated for 48 hrs by MTS assay; assay type: functional; conditions: PC-3, 48 h
[6] = Growth inhibition of human 2008 cells incubated for 48 hrs by MTS assay; assay type: functional; conditions: Homo sapiens, 2008, 48 h
[7] = Growth inhibition of human MDA-MB-231 cells incubated for 96 hrs by MTS assay; assay type: functional; conditions: MDA-MB-231, 96 h
Tubulin (Bos taurus) [8] = target: T1, Tubulin (Bos taurus); assay: Inhibition of [3H]colchicin binding to bovine brain tubulin incubated at 5 uM and 30 degreeC for 10 mins in presence of GTP by scintillation spectroscopic method
[9] = Growth inhibition of human 2008 cells incubated for 96 hrs by MTS assay; assay type: functional; conditions: Homo sapiens, 2008, 96 h
MCF7 [10] = assay: Antimitotic activity in human MCF7 cells assessed as increase in mitotic index at 7.8 to 1000 nM measured after 14 to 16 hrs by immunohistochemical analysis; assay type: functional, cell-based
Tubulin (Bos taurus) [11] = target: T1, Tubulin (Bos taurus); assay: Inhibition of [3H]colchicine binding to bovine brain tubulin at 50 uM relative to control
Tubulin (Bos taurus) [12] = target: T1, Tubulin (Bos taurus); assay: Inhibition of [3H]colchicine binding to bovine brain tubulin at 5 uM relative to control
MCF7 [13] = assay: Antimitotic activity in human MCF7 cells assessed as chromatin condensation at 7.8 to 1000 nM measured after 14 to 16 hrs by immunohistochemical analysis; assay type: functional, cell-based
MCF7 [14] = assay: Antimitotic activity in human MCF7 cells assessed as increase in core histone phosphorylation at 7.8 to 1000 nM measured after 14 to 16 hrs by immunohistochemical analysis; assay type: functional, cell-based
MCF7 [15] = assay: Antimitotic activity in human MCF7 cells assessed as induction of cell rounding at 7.8 to 1000 nM measured after 14 to 16 hrs by immunohistochemical analysis; assay type: functional, cell-based
MCF7 [16] = assay: Antimitotic activity in human MCF7 cells assessed as disruption of microtubules at 7.8 to 1000 nM measured after 14 to 16 hrs by immunohistochemical analysis; assay type: functional, cell-based

Structure (SMILES)	inhibition (Tubulin (Bos taurus) [1])	inhibition (Tubulin (Bos taurus) [2])	GI50 [3]	GI50 [4]	GI50 [5]	GI50 [6]	GI50 [7]	inhibition (Tubulin (Bos taurus) [8])	GI50 [9]	inhibition (Tubulin (Bos taurus) [11])	inhibition (Tubulin (Bos taurus) [12])	also measured
COc1cc(/C=N\OC/C=C/C=C(\C)CCC(O)c2cccs2)cc(OC)c1OC (stereo not given)	100%	57%	–	–	–	–	–	–	–	–	–	–
COc1ccc(/C=C\CC/C=C/C=C(\C)CCC(O)c2ccccc2OC)c(OC)c1 (stereo not given)	–	–	> 50000 nM	> 50000 nM	> 50000 nM	–	–	–	–	–	–	–
COc1cc(/C=N\OC[C@H]2C[C@@H]2[C@@H]2C[C@]2(C)CCC(O)c2cccs2)cc(OC)c1OC (stereo not given in full)	26%	-1%	980 nM	8800 nM	1200 nM	9900 nM	15000 nM	-9%	39000 nM	–	–	–
COc1cc(/C=C\CC/C=C/C=C(\C)CCC(O)c2cccs2)cc(OC)c1OC (stereo not given)	> 100%	–	151 to 280 nM	1020 nM	366 to 380 nM	280 to 311 nM	214 nM	–	–	59%	9.9%	Activity (MCF7 [10]): Active
COc1cc(/C=C\CC/C=C/C=C(\C)CCC(O)c2cc3ccccc3o2)cc(OC)c1OC (stereo not given)	74.6%	–	86 to 120 nM	1120 nM	310 to 596 nM	–	204 nM	–	199 nM	68.7%	12.5%	–
C=CC[C@@H](CC/C(C)=C/C=C/CC/C=C\[C@@H]1COC(/C=C/c2ccccc2)=N1)OC	–	–	–	–	–	–	–	9%	–	–	–	–
C=CC[C@@H](CC/C(C)=C/C=C/CC/C=C\[C@@H]1CSC([C@@H]2C[C@@H]2C)=N1)OC [CURACIN A]	97.9 to 98%	–	96 to 186 nM	–	–	–	–	–	–	96.2 to 97.7%	84.9 to 95%	–
COc1ccc(/C=C\CC/C=C/C=C(\C)CCC(O)c2cc3ccccc3s2)c(OC)c1 (stereo not given)	–	–	> 50000 nM	> 50000 nM	> 50000 nM	–	–	–	–	< 26.4%	–	–
COc1cc(/C=N\OC[C@@H]2C[C@H]2CCC(C)c2cccs2)cc(OC)c1OC (stereo not given in full)	–	18%	> 50000 nM	> 50000 nM	> 50000 nM	> 50000 nM	> 50000 nM	-10%	> 50000 nM	–	–	–
COc1cc(/C=C\CC/C=C/C=C(\C)CCC(O)c2ccco2)cc(OC)c1OC (stereo not given)	–	–	–	–	–	–	–	–	–	–	–	Activity (MCF7 [10]): Active
COc1ccc(/C=C\CC/C=C/C=C(\C)CCC(O)c2ccco2)c(OC)c1 (stereo not given)	–	–	–	> 50000 nM	> 50000 nM	–	–	–	–	–	–	–
COc1ccc(/C=C\CC/C=C/C=C(\C)CCC(O)c2cc(OC)ccc2OC)c(OC)c1 (stereo not given)	–	–	–	> 50000 nM	> 50000 nM	–	–	–	–	–	–	–
C=CC[C@@H](CC/C(C)=C/C=C/CC/C=C\[C@@H]1COC(C(C)(C)C)=N1)OC	0%	80%	–	–	–	–	–	14%	–	–	–	–
COc1ccc(OC)c(C(O)CC/C(C)=C/C=C/CC/C=C\c2cc(OC)c(OC)c(OC)c2)c1 (stereo not given)	3.5%	–	–	–	–	–	8730 nM	–	–	20.3%	0.7%	–
C=CC[C@@H](CC/C(C)=C/C=C/CC/C=C\[C@@H]1CSC(C(C)(C)C)=N1)OC	100%	63%	–	–	–	–	–	35%	–	–	–	–
C=CC[C@@H](CC/C(C)=C/C=C/CC/C=C\c1coc(C(C)(C)C)n1)OC	–	7%	–	> 50000 nM	–	–	–	7%	> 50000 nM	–	–	–
COc1ccccc1C(O)CC/C(C)=C/C=C/CC/C=C\c1cc(OC)c(OC)c(OC)c1 (stereo not given)	> 100%	–	243 to 340 nM	–	620 to 933 nM	314 to 330 nM	221 nM	–	268 nM	73%	5%	Activity (MCF7 [10]): Active
C=CC[C@@H](CC[C@@]1(C)C[C@H]1[C@H]1C[C@@H]1CC/C=C\[C@@H]1CSC([C@@H]2C[C@@H]2C)=N1)OC	0%	–	> 50000 nM	> 50000 nM	> 50000 nM	> 50000 nM	> 50000 nM	9%	> 50000 nM	–	–	–
COc1cc(/C=C\CC/C=C/C=C(\C)CCC(O)c2cc3ccccc3s2)cc(OC)c1OC (stereo not given)	> 100%	–	83 to 230 nM	1220 nM	620 to 875 nM	360 to 380 nM	1280 nM	–	235 nM	–	30.2%	Activity (MCF7 [10]): Active; Activity (MCF7 [13]): Active; Activity (MCF7 [14]): Active; Activity (MCF7 [15]): Active; Activity (MCF7 [16]): Active
C=CC[C@@H](CC/C(C)=C/C=C/CC/C=C\c1csc(C(C)(C)C)n1)OC	100%	43%	–	–	–	–	–	38%	–	–	–	–
